Data published in the NIST ThermoML archive (doi:10.1016/j.jct.2014.07.024).

Assay: excess molar enthalpy (molar enthalpy of mixing); xn = mol fraction of the nth substance listed
Settings: 101 kPa, Crystal, Calvet calorimetry

O=[N+]([O-])[O-].[Rb+] [rubidium nitrate] + O=[N+]([O-])[O-].[Cs+]
excess molar enthalpy [kcal/mol]
Settings	298.15 K	473.15 K
x1 = 0.1	0.12	–
x1 = 0.16	–	0.0619
x1 = 0.23	0.263	–
x1 = 0.32	0.287	–
x1 = 0.36	–	0.132
x1 = 0.5	0.335	0.139
x1 = 0.57	0.335	–
x1 = 0.65	0.311	–
x1 = 0.68	0.287	–
x1 = 0.73	–	0.103
x1 = 0.8	0.215	–
